A short description of assay [1]: Binding affinity to biotin labeled hairpin DNA 5'-GAATTC-3' (unknown origin) assessed as dissociation rate constant by sensor chip immobilization based surface plasmon resonance analysis. Background: SPR reads the build-up and loss of mass on a sensor chip optically.
Assay [2] can be described thus: Inhibition of PU.1 binding to biotin labeled lambdaB DNA (unknown origin) by sensor chip immobilization based surface plasmon resonance analysis.
Assay [3] is described as follows: Binding affinity to biotin labeled hairpin DNA 5'-GAATTC-3' (unknown origin) assessed as association constant by sensor chip immobilization based surface plasmon resonance analysis.
A short description of assay [4]: Binding affinity to biotin labeled hairpin DNA 5'-GAATTC-3' (unknown origin) assessed as equilibrium dissociation constant by sensor chip immobilization based surface plasmon resonance analysis.
A short description of assay [5]: Binding affinity to biotin labeled hairpin DNA 5'-GAATTC-3' (unknown origin) assessed as equilibrium binding constant by sensor chip immobilization based surface plasmon resonance analysis.

Here are results for 3 compounds from ChEMBL document CHEMBL5126589, “Drug design and DNA structural research inspired by the Neidle laboratory: DNA minor groove binding and transcription factor inhibition by thiophene diamidines” (Bioorg Med Chem, 2022).

In the case of `N=C(N)c1ccc(-c2ccc(-c3cc4ccc(C(=N)N)cc4[nH]3)s2)cc1`, the Kd – broadly, the concentration at which binding is half-saturated – in assay [1] is 2.9 10^-3/s; in assay [4], 6.5 nM. For the same compound, in assay [2], the IC50 (as a rule, the concentration that inhibits the measured activity by half) came out at 23 nM. Moreover, the Ka in assay [3] is 4.5 10^5/M/s.

As for `N=C(N)c1ccc(-c2ccc(-c3ccc(C(=N)N)cc3)o2)cc1` [FURAMIDINE], the Kd in assay [4] came out at 140 nM.

Turning to `N=C(N)c1ccc(-c2ccc(-c3nc4ccc(C(=N)N)cc4[nH]3)s2)cc1`, the results for the Kd in assay [1] and in assay [4] were 8.9 10^-3/s and 1.5 nM, respectively. Moreover, the IC50 in assay [2] turned out to be 9 nM. Besides, in assay [3], the Ka was 5.8 10^6/M/s. Also, the KA in assay [5] was 6.6 10^8/M.
